Key:
MHC-II positive cells = details: rabbit, in vivo
Experimental: (§1) Twelve pigmented rabbits weighing between 2 and 4 kg were used. Animals were anesthetized with ketamine HCI (40 mg/kg) and xylocaine (5 mg/kg). Tetracaine HCI (0.5%) was used for topical anesthesia. Tropicamide (1%) and phenylephrine (2.5%) eye drops were used for pupillary dilation. Euthanasia was accomplished with sodium pentobarbital (150 mg/kg) intracardiac injection. Two rabbits were sacrificed at day 2, 7, 14, 28, 42 and 56 following PDT.
(§2) Ten rabbits were injected intravenously with 2 mg/kg BPD-MA, and 689 nm laser light at 600 mW/cm^2 was successively applied on three 1.25-mm spot in one eye according to the following schedule:
(§3) All eyes were enucleated immediately after euthanasia. After the cornea, lens, and vitreous were removed, experimental area was delineated with sharp cuts. Tissue was placed in freezing compound (OCT) and frozen in liquid nitrogen. Serial cryosections were cut and stored at −70° C. Non-treated eyes were used for control. Cryosections were stained with H&E and immunohistochemical staining.
(§4) Frozen sections were thawed and fixed with fresh acetone for 5 minutes. Endogenous peroxide activity was blocked with 0.3% hydrogen peroxide in phosphate buffered saline (PBS). After blocked with PBS and 1% bovine serum albumin (BSA), the specific primary antibodies were diluted in PBS with 1% BSA and incubated at room temperature for an hour. […]

CD8 positive cells = details: rabbit, in vivo
Experimental: as §1, §2, §3, §4

macrophages = details: rabbit, in vivo
Experimental: Tetracaine HCI (0.5%) was used for topical anesthesia.
All eyes were enucleated immediately after euthanasia. […] Serial cryosections were cut and stored at −70° C. Non-treated eyes were used for control. Cryosections were stained with H&E and immunohistochemical staining.

CD4 positive cells = details: rabbit, in vivo
Experimental: as §1, §2, §3, §4

normal rabbit choroid [1] = details: in vivo
Experimental: as §1, §2
Following PDT, animals were kept in a dark room overnight.
Fluorescein angiography (FA) and fundus photography were performed as 2 baseline before PDT, the day after PDT, weekly, and at the day of sacrifice.
(§5) Normal-dose PDT was performed as phase 1 in three rabbits.
(§6) Immediately after each individual light treatment with normal-dose PDT, 5 mm Spot concentric with the 1.25 mm spot was exposed to 15 J/cm^2 (25 sec) in three rabbits. FA and fundus photography was taken as phase 1, and animals were sacrificed for immunohistochemical study at day 28 following PDT.

normal rabbit choroid [2] = details: in vivo; remark: listed apart in the source
Experimental: as §1, §2, §3

[3] = system: CD4, CD8, Macrophage and MHC-II positive cells; assay: Immunohistochemistry of inflammatory cells after PDT (combined statements)
Experimental: as §1, §2, §3
Frozen sections were thawed and fixed with fresh acetone for 5 minutes. Endogenous peroxide activity was blocked with 0.3% hydrogen peroxide in phosphate buffered saline (PBS). After blocked with PBS and 1% bovine serum albumin (BSA), the specific primary antibodies were diluted in PBS with 1% BSA and incubated at room temperature for an hour. Detection was achieved using ABC Elite detection kit (DAKO) with aminoethylcarbizole as the chromogen. Sections were counterstained with light Mayers' hematoxylin, washed with tap water, and mounted in water soluble mounting medium (Biomeda, Catalogue no. MO1).
as §5, §6

Substance: 9-methyl (I) and 13-methyl (II) trans-(±)-18-ethenyl-4,4a-dihydro-3,4-bis(methoxycarbonyl)-4a,8,14,19-tetramethyl-23H,25H-benzo[b]porphine-9,13-dipropanoate [BPD-MA]
- change of MHC-II positive cells versus control (MHC-II positive cells): statistically significantly increased
- change of CD8 positive cells versus control (CD8 positive cells): statistically significantly increased
- Macrophage positive cells after the additional low-dose PDT (macrophages): slightly increased
- change of macrophages versus control (macrophages): statistically significantly increased
- change of CD4 positive cells in treated area (CD4 positive cells): no significant increase
- change of CD4 positive cells versus control (CD4 positive cells): statistically significantly increased
- neovascular leakage on fluorescein angiography (normal rabbit choroid [1]): no neovascular leakages
- dependence of histologic damage on dose of light (normal rabbit choroid [2]): more severe with the higher dose of light
- histologic damage of RPE layer, photoreceptor layer, outer nuclear and plexiform layer (normal rabbit choroid [2]): damaged in all cases
- histologic damage of inner nuclear layer (normal rabbit choroid [2]): a little damages but generally preserved well
- state of choriocapillaries and larger choroidal vessels after PDT (normal rabbit choroid [2]): collapsed after PDT, but not the larger choroidal vessels
- time for RPE layer to begin to become a monolayer again (normal rabbit choroid [2]): in two weeks
- persistence of inflammatory reactions after therapeutic PDT ([3]; normal rabbit choroid): ≤ 56 days
- change of CD4, CD8, Macrophage and MHC-II positive cells compared to control ([3]; rabbit, Phase 2, 4 weeks after low-dose PDT): slightly increased
- effect of additional concentric large diameter low-dose PDT on the increase in CD4, CD8, Macrophage and MHC-II positive cells after normal-dose PDT ([3]; rabbit, Phase 3, day 28): suppressed the increase
- effect of low dose light following therapeutic PDT on inflammation ([3]; rabbit, low dose light 15 J/cm^2): effectively inhibited the increase in inflammation

Source: US8106038B2, “Method for reducing or preventing PDT related inflammation” (QLT Inc., priority 2001, dated 2012)
